Source: patent publication US9751854B2 (Millennium Pharmaceuticals, Inc., priority 2014, dated 2017)

Biological target: human VPS34 (Homo sapiens (Human), UniProt Q8NEB9)
Assay: Human VPS34 enzyme assay (Adapta TR-FRET ADP detection)
Assay type: biochemical
Parameters: Percent Inhibition: dose or concentration left out as unconfirmed
Settings: not given

Sequence of human VPS34 (Q8NEB9 whole entry): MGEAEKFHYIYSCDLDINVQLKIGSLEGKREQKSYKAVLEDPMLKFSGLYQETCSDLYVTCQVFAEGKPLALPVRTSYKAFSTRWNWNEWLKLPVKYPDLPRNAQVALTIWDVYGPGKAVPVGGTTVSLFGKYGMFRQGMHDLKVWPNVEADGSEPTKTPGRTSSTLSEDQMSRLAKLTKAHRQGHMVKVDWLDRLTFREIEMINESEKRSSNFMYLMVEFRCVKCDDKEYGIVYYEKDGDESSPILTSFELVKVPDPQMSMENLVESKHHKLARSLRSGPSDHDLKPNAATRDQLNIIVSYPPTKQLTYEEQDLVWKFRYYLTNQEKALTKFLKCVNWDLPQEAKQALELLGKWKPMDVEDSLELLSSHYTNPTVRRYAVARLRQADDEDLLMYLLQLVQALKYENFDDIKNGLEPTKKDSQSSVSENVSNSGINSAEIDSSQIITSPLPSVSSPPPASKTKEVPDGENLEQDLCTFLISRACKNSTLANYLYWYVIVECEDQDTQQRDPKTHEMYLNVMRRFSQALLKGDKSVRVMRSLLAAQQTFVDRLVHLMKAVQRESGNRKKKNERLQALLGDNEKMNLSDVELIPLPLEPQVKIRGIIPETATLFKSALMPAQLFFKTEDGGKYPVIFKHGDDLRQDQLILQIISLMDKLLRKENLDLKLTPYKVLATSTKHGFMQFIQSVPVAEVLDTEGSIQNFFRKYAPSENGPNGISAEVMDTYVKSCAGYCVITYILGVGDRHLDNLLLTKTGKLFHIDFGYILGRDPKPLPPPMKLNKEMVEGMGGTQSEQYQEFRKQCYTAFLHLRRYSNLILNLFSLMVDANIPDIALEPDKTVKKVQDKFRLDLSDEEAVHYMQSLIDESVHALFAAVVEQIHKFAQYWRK

Percent Inhibition, >99%:
CC(=O)Nc1cc(-c2ccnc(Nc3ccnc(C4CC4)n3)c2)cn2nccc12 [Compound I-371, N-(6-{2-[(2-cyclopropylpyrimidin-4-yl)amino]pyridin-4-yl}pyrazolo[1,5-a]pyridin-4-yl)acetamide]
CC(=O)Nc1cc(-c2cnc(Cl)c(NS(=O)(=O)N(C)C)c2)ccn1 [Compound I-372, N-{6-chloro-5-[(dimethylsulfamoyl)amino]-3,4′-bipyridin-2′-yl}acetamide]

Same assay, conditions: IC50 range class

IC50, > 100 nM:
Cc1nccc(Nc2cc(-c3cnc4c(c3)C(=O)N(Cc3ccccc3)CC4)ccn2)n1 [Compound I-378, 6-benzyl-3-[2-[(2-methylpyrimidin-4-yl)amino]-4-pyridyl]-7,8-dihydro-1,6-naphthyridin-5-one]
Cc1nccc(Nc2cc(-c3cnc(C)c(OCCN(C)C)c3)ccn2)n1 [Compound I-379, 5-[2-(dimethylamino)ethoxy]-6-methyl-N-(2-methylpyrimidin-4-yl)-3,4′-bipyridin-2′-amine]
CC(=O)Nc1cc(-c2cnc(C#N)c(N3CCCCC3C)c2)ccn1 (centres unmarked) [Compound I-380, N-[6-cyano-5-(2-methylpiperidin-1-yl)-3,4′-bipyridin-2′-yl]acetamide]
CC(=O)Nc1cc(-c2cncc(N(CCO)S(=O)(=O)c3ccc(F)cc3F)c2)ccn1 [Compound I-384, N-(5-{[(2,4-difluorophenyl)sulfonyl](2-hydroxyethyl)amino}-3,4′-bipyridin-2′-yl)acetamide]
CC(=O)Nc1cc(-c2cnc(C)c(Nc3nc4ccccc4o3)c2)ccn1 [Compound I-392, N-[5-(1,3-benzoxazol-2-ylamino)-6-methyl-3,4′-bipyridin-2′-yl]acetamide]
CC(=O)Nc1cc(-c2cnc(C)c(N(C)C(=O)c3ccc(F)cc3F)c2)ccn1 [Compound I-398, N-(2′-acetamido-6-methyl-3,4′-bipyridin-5-yl)-2,4-difluoro-N-methylbenzamide]
Cc1nccc(Nc2cc(-c3cnc4c(c3)C(=O)NCC4)ccn2)n1 [Compound I-406, 3-[2-[(2-methylpyrimidin-4-yl)amino]-4-pyridyl]-7,8-dihydro-6H-1,6-naphthyridin-5-one]
CC(=O)Nc1cc(-c2cnc(N)c(C(=O)NC(=N)N)c2)ccn1 [Compound I-409, 2′-acetamido-6-amino-N-carbamimidoyl-3,4′-bipyridine-5-carboxamide]

IC50, < 10 nM:
CC(=O)Nc1cc(-c2ccnc(Nc3ccnc(C4CC4)n3)c2)cn2nccc12 [Compound I-371, N-(6-{2-[(2-cyclopropylpyrimidin-4-yl)amino]pyridin-4-yl}pyrazolo[1,5-a]pyridin-4-yl)acetamide]
CC(=O)Nc1cc(-c2cnc(Cl)c(NS(=O)(=O)N(C)C)c2)ccn1 [Compound I-372, N-{6-chloro-5-[(dimethylsulfamoyl)amino]-3,4′-bipyridin-2′-yl}acetamide]
COc1nc(C)nc(Nc2cc(-c3cnc(C)c(NS(=O)(=O)c4ccc(F)cc4F)c3)ccn2)n1 [Compound I-375, 2,4-difluoro-N-{2′-[(4-methoxy-6-methyl-1,3,5-triazin-2-yl)amino]-6-methyl-3,4′-bipyridin-5-yl}benzenesulfonamide]
Cc1nccc(Nc2cc(-c3cnc(Cl)c(NS(=O)(=O)N(C)C)c3C)ccn2)n1 [Compound I-381, N′-{6-chloro-4-methyl-2′-[(2-methylpyrimidin-4-yl)amino]-3,4′-bipyridin-5-yl}-N,N-dimethylsulfuric diamide]
Cc1nc(Nc2cc(-c3cnc(C)c(NS(=O)(=O)c4ccc(F)cc4F)c3)ccn2)nc(C2CC2)n1 [Compound I-382, N-{2′-[(4-cyclopropyl-6-methyl-1,3,5-triazin-2-yl)amino]-6-methyl-3,4′-bipyridin-5-yl}-2,4-difluorobenzenesulfonamide]
CCOC(=O)Nc1cc(-c2cnc(C)c(NS(=O)(=O)c3ccc(F)cc3F)c2)ccn1 [Compound I-389, ethyl (5-{[(2,4-difluorophenyl)sulfonyl]amino}-6-methyl-3,4′-bipyridin-2′-yl)carbamate]
CC(=O)Nc1cc(-c2cnc(Cl)c(NS(=O)(=O)c3cc(Cl)ccc3Cl)c2C)ccn1 [Compound I-401, N-(6-chloro-5-{[(2,5-dichlorophenyl)sulfonyl]amino}-4-methyl-3,4′-bipyridin-2′-yl)acetamide]
CC(=O)Nc1cc(-c2cnc(C#N)c(NS(=O)(=O)c3ccc(F)cc3F)c2)ccn1 [Compound I-411, N-(6-cyano-5-{[(2,4-difluorophenyl)sulfonyl]amino}-3,4′-bipyridin-2′-yl)acetamide]

IC50, 50 to 100 nM:
Cc1ncc(-c2ccnc(NC(=O)C3CC3)c2)cc1C(=O)N(C)C12CC(C1)C2 [Compound I-388, N-(bicyclo[1.1.1]pent-1-yl)-2′-[(cyclopropylcarbonyl)amino]-N,6-dimethyl-3,4′-bipyridine-5-carboxamide]
CC(=O)Nc1cc(-c2cncc(N(C)C(=O)c3ccc(F)cc3F)c2)ccn1 [Compound I-397, N-(2′-acetamido-3,4′-bipyridin-5-yl)-2,4-difluoro-N-methylbenzamide]

IC50, 10 to 50 nM:
CCCCS(=O)(=O)Nc1cc(-c2ccnc(NC(C)=O)c2)cnc1C [Compound I-373, N-{5-[(butylsulfonyl)amino]-6-methyl-3,4′-bipyridin-2′-yl}acetamide]
CC(=O)Nc1cc(-c2cnc(C)c(NS(=O)(=O)N3CCC(F)(F)CC3)c2)ccn1 [Compound I-374, N-(5-{[(4,4-difluoropiperidin-1-yl)sulfonyl]amino}-6-methyl-3,4′-bipyridin-2′-yl)acetamide]
CC(=O)Nc1cc(-c2cnc3c(c2)S(=O)(=O)N(C24CC(C2)C4)CCO3)ccn1 [Compound I-376, N-{4-[2-(bicyclo[1.1.1]pent-1-yl)-1,1-dioxido-3,4-dihydro-2H-pyrido[2,3-b][1,4,5]oxathiazepin-8-yl]pyridin-2-yl}acetamide]
CC(=O)Nc1cc(-c2cnc(C)c(NS(=O)(=O)c3cccc(F)c3F)c2)ccn1 [Compound I-377, N-(5-{[(2,3-difluorophenyl)sulfonyl]amino}-6-methyl-3,4′-bipyridin-2′-yl)acetamide]
CCOC(=O)Nc1cc(-c2cnc(Cl)c(NS(=O)(=O)c3ccc(F)cc3F)c2C)ccn1 [Compound I-383, ethyl (6-chloro-5-{[(2,4-difluorophenyl)sulfonyl]amino}-4-methyl-3,4′-bipyridin-2′-yl)carbamate]
CC(=O)Nc1cc(-c2cnc(C)c(N3CCN(C)S3(=O)=O)c2)ccn1 [Compound I-386, N-[6-methyl-5-(5-methyl-1,1-dioxido-1,2,5-thiadiazolidin-2-yl)-3,4′-bipyridin-2′-yl]acetamide]
CC(=O)Nc1cc(-c2cnc(C)c(N3CCCNS3(=O)=O)c2)ccn1 [Compound I-387, N-[5-(1,1-dioxido-1,2,6-thiadiazinan-2-yl)-6-methyl-3,4′-bipyridin-2′-yl]acetamide]
Cc1ccc(Oc2cc(-c3ccnc(Nc4ccnc(C)n4)c3)cnc2C)nc1 [Compound I-390, 6-methyl-5-[(5-methylpyridin-2-yl)oxy]-N-(2-methylpyrimidin-4-yl)-3,4′-bipyridin-2′-amine]
CC(=O)Nc1cc(-c2cncc(S(=O)(=O)N3CC(F)(F)C3)c2)ccn1 [Compound I-391, N-{5-[(3,3-difluoroazetidin-1-yl)sulfonyl]-3,4′-bipyridin-2′-yl}acetamide]
CC(=O)Nc1cc(-c2cncc(NS(=O)(=O)c3ccc(F)cc3F)c2Cl)ccn1 [Compound I-394, N-(4-chloro-5-{[(2,4-difluorophenyl)sulfonyl]amino}-3,4′-bipyridin-2′-yl)acetamide]
CC(=O)Nc1cc(-c2cnc(C)c(S(N)(=O)=O)c2)ccn1 [Compound I-395, N-(6-methyl-5-sulfamoyl-3,4′-bipyridin-2′-yl)acetamide]
CC(=O)Nc1cc(-c2cncc(S(=O)(=O)NC3CCC3)c2)ccn1 [Compound I-396, N-[5-(cyclobutylsulfamoyl)-3,4′-bipyridin-2′-yl]acetamide]
CC(=O)Nc1cc(-c2cnc(Cl)c(NS(=O)(=O)c3ccc(Cl)cc3F)c2C)ccn1 [Compound I-399, N-(6-chloro-5-{[(4-chloro-2-fluorophenyl)sulfonyl]amino}-4-methyl-3,4′-bipyridin-2′-yl)acetamide]
Cc1nccc(Nc2cc(-c3cnc(Cl)c(C(=O)O)c3C)ccn2)n1 [Compound I-402, 6-chloro-4-methyl-2′-[(2-methylpyrimidin-4-yl)amino]-3,4′-bipyridine-5-carboxylic acid]
CC(=O)Nc1cc(-c2cc(NS(=O)(=O)c3ccc(F)cc3F)c3ccnn3c2)ccn1 [Compound I-404, N-[4-(4-{[(2,4-difluorophenyl)sulfonyl]amino}pyrazolo[1,5-a]pyridin-6-yl)pyridin-2-yl]acetamide]
CC(=O)Nc1cc(-c2cncc(N3CCOc4cc(F)ccc4S3(=O)=O)c2)ccn1 [Compound I-405]
Cc1nccc(Nc2cc(-c3cc(NC(=O)N4CC(F)(F)C4)c4ccnn4c3)ccn2)n1 [Compound I-407, 3,3-difluoro-N-(6-{2-[(2-methylpyrimidin-4-yl)amino]pyridin-4-yl}pyrazolo[1,5-a]pyridin-4-yl)azetidine-1-carboxamide]
Cc1nccc(Nc2cc(-c3cncc(C(=O)N4CC(F)(F)C4)c3)ccn2)n1 [Compound I-408, (3,3-difluoroazetidin-1-yl){2′-[(2-methylpyrimidin-4-yl)amino]-3,4′-bipyridin-5-yl}methanone]
CC(=O)Nc1cc(-c2cnc(Cl)c(S(=O)(=O)NC(C)(C)C)c2C)ccn1 [Compound I-410, N-[5-(tert-butylsulfamoyl)-6-chloro-4-methyl-3,4′-bipyridin-2′-yl]acetamide]
CC(=O)Nc1cc(-c2cnc(C)c(NS(=O)(=O)CC(F)F)c2)ccn1 [Compound I-412, N-(5-{[(2,2-difluoroethyl)sulfonyl]amino}-6-methyl-3,4′-bipyridin-2′-yl)acetamide]
O=C(c1cncc(-c2ccnc(Nc3ccnc(C4CC4)n3)c2)c1)N1CC(F)(F)C1 [Compound I-413, (2′-[(2-cyclopropylpyrimidin-4-yl)amino]-3,4′-bipyridin-5-yl)(3,3-difluoroazetidin-1-yl)methanone]
